What was measured:
Assay in all cases: Kinobeads competition binding with immobilized CZC25342, mixed HeLa placenta lysates (Example 5, Table 7)
[1] = molecular target: T1, kinases from mixed HeLa placenta lysates (Homo sapiens, UniProt Q9H2G2); conditions: kinase SLK; 10 μM free compound; HeLa Placenta lysate mix
T1 construct: capturing and identification of kinases from mixed HeLa placenta lysates; endogenous in cells; host or cells: mixed lysate of HeLa cells and placenta tissue
Method: (§1) To one aliquot of cell lysate 10 μM of the free compound (FIG. 2, CZC25342) was added and allowed to bind to proteins in the lysate. Then the affinity matrix with the immobilized compound was added to capture proteins that were not interacting with the previously added free compound. Beads were separated from the lysate and bead bound proteins were eluted in SDS sample buffer and subsequently separated by SDS-Polyacrylamide gel electrophoresis (FIG. 11). Suitable gel bands were cut out and subjected to in-gel proteolytic digestion with trypsin. The second lysate aliquot was processed identically, however no free compound was added (DMSO solvent control). Peptides originating from samples 1 and 2 were labeled with iTRAQ reagents (iTRAQ 114 and iTRAQ 117) and the combined samples were analyzed with a nano-flow liquid chromatography system coupled online to a tandem mass spectrometer (LC-MS/MS) experiment followed by iTRAQ reporter ion quantification in the MS/MS spectra as described in Example 2. The identified kinases are shown in Table 7 including the percent competition values for the sample to which 10 μM free compound had been added. In total of 83 different kinases were identified and competed by different degrees.

[2] = molecular target: T2, kinases from mixed HeLa placenta lysates (Homo sapiens, UniProt Q6PHR2); conditions: kinase ULK3; 10 μM free compound; HeLa Placenta lysate mix
T2 construct: capturing and identification of kinases from mixed HeLa placenta lysates; endogenous in cells; host or cells: mixed lysate of HeLa cells and placenta tissue
T2 sequence (Q6PHR2 whole entry): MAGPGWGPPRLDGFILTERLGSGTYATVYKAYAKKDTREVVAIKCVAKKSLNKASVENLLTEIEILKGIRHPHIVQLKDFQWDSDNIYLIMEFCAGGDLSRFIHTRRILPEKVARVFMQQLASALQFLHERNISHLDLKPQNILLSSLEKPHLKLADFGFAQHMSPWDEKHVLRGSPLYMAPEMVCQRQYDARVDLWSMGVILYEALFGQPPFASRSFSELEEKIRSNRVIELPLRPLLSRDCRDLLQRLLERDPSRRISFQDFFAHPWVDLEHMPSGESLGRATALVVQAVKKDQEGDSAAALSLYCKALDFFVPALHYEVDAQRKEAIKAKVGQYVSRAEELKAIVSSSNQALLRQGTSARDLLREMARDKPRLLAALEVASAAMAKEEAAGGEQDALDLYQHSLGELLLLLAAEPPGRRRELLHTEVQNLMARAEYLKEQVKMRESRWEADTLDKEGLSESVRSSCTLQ
Method: as §1

[3] = molecular target: T3, kinases from mixed HeLa placenta lysates (Homo sapiens, UniProt P51956); conditions: kinase NEK3; 10 μM free compound; HeLa Placenta lysate mix
T3 construct: capturing and identification of kinases from mixed HeLa placenta lysates; endogenous in cells; host or cells: mixed lysate of HeLa cells and placenta tissue
T3 sequence (P51956 whole entry): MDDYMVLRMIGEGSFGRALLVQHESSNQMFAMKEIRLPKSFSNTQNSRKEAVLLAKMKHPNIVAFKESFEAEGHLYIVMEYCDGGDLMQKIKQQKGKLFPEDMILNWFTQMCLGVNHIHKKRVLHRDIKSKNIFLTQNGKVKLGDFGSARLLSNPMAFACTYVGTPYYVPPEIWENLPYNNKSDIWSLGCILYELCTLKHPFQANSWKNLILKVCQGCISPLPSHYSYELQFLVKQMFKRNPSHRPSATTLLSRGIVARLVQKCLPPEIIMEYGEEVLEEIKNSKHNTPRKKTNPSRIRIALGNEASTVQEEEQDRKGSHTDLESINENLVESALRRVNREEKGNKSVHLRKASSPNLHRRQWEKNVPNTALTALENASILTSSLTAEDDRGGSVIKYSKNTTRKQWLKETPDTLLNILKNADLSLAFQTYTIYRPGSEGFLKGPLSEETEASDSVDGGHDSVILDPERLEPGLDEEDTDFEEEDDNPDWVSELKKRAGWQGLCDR
Method: as §1

[4] = molecular target: T4, kinases from mixed HeLa placenta lysates (Homo sapiens, UniProt P12931); conditions: kinase SRC; 10 μM free compound; HeLa Placenta lysate mix
T4 construct: capturing and identification of kinases from mixed HeLa placenta lysates; endogenous in cells; host or cells: mixed lysate of HeLa cells and placenta tissue
T4 sequence (P12931 whole entry): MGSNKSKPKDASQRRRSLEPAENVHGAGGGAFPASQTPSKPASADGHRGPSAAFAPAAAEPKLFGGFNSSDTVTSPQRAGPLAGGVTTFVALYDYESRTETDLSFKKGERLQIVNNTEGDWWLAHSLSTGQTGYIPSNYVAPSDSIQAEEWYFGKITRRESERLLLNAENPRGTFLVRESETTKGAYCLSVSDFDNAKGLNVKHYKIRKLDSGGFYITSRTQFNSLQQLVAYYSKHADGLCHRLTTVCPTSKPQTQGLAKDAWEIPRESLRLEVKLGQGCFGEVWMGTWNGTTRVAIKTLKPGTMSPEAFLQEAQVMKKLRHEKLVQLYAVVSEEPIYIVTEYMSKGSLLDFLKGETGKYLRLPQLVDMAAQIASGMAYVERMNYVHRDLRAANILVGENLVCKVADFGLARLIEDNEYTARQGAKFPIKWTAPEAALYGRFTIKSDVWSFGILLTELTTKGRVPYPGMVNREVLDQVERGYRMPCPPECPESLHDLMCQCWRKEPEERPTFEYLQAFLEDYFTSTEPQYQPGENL
Method: as §1

[5] = molecular target: T5, kinases from mixed HeLa placenta lysates (Homo sapiens, UniProt Q02763); conditions: kinase TIE2; 10 μM free compound; HeLa Placenta lysate mix
T5 construct: capturing and identification of kinases from mixed HeLa placenta lysates; endogenous in cells; host or cells: mixed lysate of HeLa cells and placenta tissue
Method: as §1

[6] = molecular target: T6, kinases from mixed HeLa placenta lysates (Homo sapiens, UniProt P42680); conditions: kinase TEC; 10 μM free compound; HeLa Placenta lysate mix
T6 construct: capturing and identification of kinases from mixed HeLa placenta lysates; endogenous in cells; host or cells: mixed lysate of HeLa cells and placenta tissue
Method: as §1

[7] = molecular target: T7, kinases from mixed HeLa placenta lysates (Homo sapiens, UniProt P50750); conditions: kinase CDK9; 10 μM free compound; HeLa Placenta lysate mix
T7 construct: capturing and identification of kinases from mixed HeLa placenta lysates; endogenous in cells; host or cells: mixed lysate of HeLa cells and placenta tissue
T7 sequence (P50750 whole entry): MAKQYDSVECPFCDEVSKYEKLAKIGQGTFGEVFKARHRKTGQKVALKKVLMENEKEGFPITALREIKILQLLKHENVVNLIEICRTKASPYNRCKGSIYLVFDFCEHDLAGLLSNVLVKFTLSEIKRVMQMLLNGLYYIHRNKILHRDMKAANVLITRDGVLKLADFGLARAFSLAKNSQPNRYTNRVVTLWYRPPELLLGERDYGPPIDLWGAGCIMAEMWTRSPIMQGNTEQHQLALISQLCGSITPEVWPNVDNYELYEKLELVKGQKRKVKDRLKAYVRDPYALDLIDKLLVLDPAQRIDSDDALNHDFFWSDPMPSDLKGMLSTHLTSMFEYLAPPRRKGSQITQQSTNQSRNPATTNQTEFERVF
Method: as §1

[8] = molecular target: T8, kinases from mixed HeLa placenta lysates (Homo sapiens, UniProt P15735); conditions: kinase PHKg2; 10 μM free compound; HeLa Placenta lysate mix
T8 construct: capturing and identification of kinases from mixed HeLa placenta lysates; endogenous in cells; host or cells: mixed lysate of HeLa cells and placenta tissue
T8 sequence (P15735 whole entry): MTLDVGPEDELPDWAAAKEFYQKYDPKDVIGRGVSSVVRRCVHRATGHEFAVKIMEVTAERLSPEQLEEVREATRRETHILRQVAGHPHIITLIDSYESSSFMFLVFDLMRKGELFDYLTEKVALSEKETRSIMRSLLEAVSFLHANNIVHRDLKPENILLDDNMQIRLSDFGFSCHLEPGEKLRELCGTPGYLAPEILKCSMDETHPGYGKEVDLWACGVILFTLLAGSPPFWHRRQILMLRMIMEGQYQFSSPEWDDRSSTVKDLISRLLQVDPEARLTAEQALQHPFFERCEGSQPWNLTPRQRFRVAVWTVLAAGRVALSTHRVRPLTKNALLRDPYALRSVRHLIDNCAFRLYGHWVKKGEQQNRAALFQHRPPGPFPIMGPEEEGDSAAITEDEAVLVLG
Method: as §1

[9] = molecular target: T9, kinases from mixed HeLa placenta lysates (Homo sapiens, UniProt Q12866); conditions: kinase MER; 10 μM free compound; HeLa Placenta lysate mix
T9 construct: capturing and identification of kinases from mixed HeLa placenta lysates; endogenous in cells; host or cells: mixed lysate of HeLa cells and placenta tissue
Method: as §1

[10] = molecular target: T10, kinases from mixed HeLa placenta lysates (Homo sapiens, UniProt Q16584); conditions: kinase MLK3; 10 μM free compound; HeLa Placenta lysate mix
T10 construct: capturing and identification of kinases from mixed HeLa placenta lysates; endogenous in cells; host or cells: mixed lysate of HeLa cells and placenta tissue
Method: as §1

[11] = molecular target: T11, kinases from mixed HeLa placenta lysates (Homo sapiens, UniProt P17252); conditions: kinase PKCa; 10 μM free compound; HeLa Placenta lysate mix
T11 construct: capturing and identification of kinases from mixed HeLa placenta lysates; endogenous in cells; host or cells: mixed lysate of HeLa cells and placenta tissue
Method: as §1

[12] = molecular target: T12, kinases from mixed HeLa placenta lysates (Homo sapiens, UniProt Q13470); conditions: kinase TNK1; 10 μM free compound; HeLa Placenta lysate mix
T12 construct: capturing and identification of kinases from mixed HeLa placenta lysates; endogenous in cells; host or cells: mixed lysate of HeLa cells and placenta tissue
Method: as §1

[13] = molecular target: T13, kinases from mixed HeLa placenta lysates (Homo sapiens, UniProt P28482); conditions: kinase Erk2; 10 μM free compound; HeLa Placenta lysate mix
T13 construct: capturing and identification of kinases from mixed HeLa placenta lysates; endogenous in cells; host or cells: mixed lysate of HeLa cells and placenta tissue
Method: as §1

[14] = molecular target: T14, kinases from mixed HeLa placenta lysates (Homo sapiens, UniProt Q9NSY1); conditions: kinase BIKE; 10 μM free compound; HeLa Placenta lysate mix
T14 construct: capturing and identification of kinases from mixed HeLa placenta lysates; endogenous in cells; host or cells: mixed lysate of HeLa cells and placenta tissue
Method: as §1

[15] = molecular target: T15, kinases from mixed HeLa placenta lysates (Homo sapiens, UniProt P07947); conditions: kinase YES; 10 μM free compound; HeLa Placenta lysate mix
T15 construct: capturing and identification of kinases from mixed HeLa placenta lysates; endogenous in cells; host or cells: mixed lysate of HeLa cells and placenta tissue
Method: as §1

[16] = molecular target: T16, kinases from mixed HeLa placenta lysates (Homo sapiens, UniProt Q04771); conditions: kinase ALK2; 10 μM free compound; HeLa Placenta lysate mix
T16 construct: capturing and identification of kinases from mixed HeLa placenta lysates; endogenous in cells; host or cells: mixed lysate of HeLa cells and placenta tissue
Method: as §1

[17] = molecular target: T17, kinases from mixed HeLa placenta lysates (Homo sapiens, UniProt O75460); conditions: kinase IRE1; 10 μM free compound; HeLa Placenta lysate mix
T17 construct: capturing and identification of kinases from mixed HeLa placenta lysates; endogenous in cells; host or cells: mixed lysate of HeLa cells and placenta tissue
T17 sequence (O75460 19-977): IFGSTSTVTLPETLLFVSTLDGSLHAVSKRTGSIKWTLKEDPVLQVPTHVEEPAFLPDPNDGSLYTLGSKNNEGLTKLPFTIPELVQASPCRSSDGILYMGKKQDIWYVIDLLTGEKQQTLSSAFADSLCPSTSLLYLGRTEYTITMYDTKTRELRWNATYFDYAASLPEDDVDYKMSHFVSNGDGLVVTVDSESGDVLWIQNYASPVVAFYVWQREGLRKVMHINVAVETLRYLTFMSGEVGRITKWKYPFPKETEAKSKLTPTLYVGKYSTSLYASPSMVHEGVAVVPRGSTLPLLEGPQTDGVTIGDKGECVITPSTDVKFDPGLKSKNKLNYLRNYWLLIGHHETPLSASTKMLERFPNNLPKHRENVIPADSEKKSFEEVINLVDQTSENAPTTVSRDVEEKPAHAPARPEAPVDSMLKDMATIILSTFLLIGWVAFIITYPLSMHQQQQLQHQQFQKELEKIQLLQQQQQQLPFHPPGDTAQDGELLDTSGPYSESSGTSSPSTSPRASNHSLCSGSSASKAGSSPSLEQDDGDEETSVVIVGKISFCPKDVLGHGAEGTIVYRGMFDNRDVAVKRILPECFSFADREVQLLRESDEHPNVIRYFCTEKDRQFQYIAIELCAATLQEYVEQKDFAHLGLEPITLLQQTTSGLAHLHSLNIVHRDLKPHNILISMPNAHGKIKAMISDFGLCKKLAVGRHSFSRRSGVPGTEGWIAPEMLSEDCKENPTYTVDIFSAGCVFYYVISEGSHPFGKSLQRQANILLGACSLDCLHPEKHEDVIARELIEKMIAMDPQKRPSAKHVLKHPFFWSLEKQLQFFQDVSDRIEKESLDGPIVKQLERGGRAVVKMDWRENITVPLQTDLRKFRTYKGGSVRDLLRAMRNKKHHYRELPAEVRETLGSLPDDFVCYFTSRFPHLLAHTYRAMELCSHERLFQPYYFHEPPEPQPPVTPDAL
Method: as §1

[18] = molecular target: T18, kinases from mixed HeLa placenta lysates (Homo sapiens, UniProt Q9Y6R4); conditions: kinase MAP3K4; 10 μM free compound; HeLa Placenta lysate mix
T18 construct: capturing and identification of kinases from mixed HeLa placenta lysates; endogenous in cells; host or cells: mixed lysate of HeLa cells and placenta tissue
Method: as §1

[19] = molecular target: T19, kinases from mixed HeLa placenta lysates (Homo sapiens, UniProt Q08345); conditions: kinase DDR1; 10 μM free compound; HeLa Placenta lysate mix
T19 construct: capturing and identification of kinases from mixed HeLa placenta lysates; endogenous in cells; host or cells: mixed lysate of HeLa cells and placenta tissue
Method: as §1

[20] = molecular target: T20, kinases from mixed HeLa placenta lysates (Homo sapiens, UniProt Q96GD4); conditions: kinase AurB; 10 μM free compound; HeLa Placenta lysate mix
T20 construct: capturing and identification of kinases from mixed HeLa placenta lysates; endogenous in cells; host or cells: mixed lysate of HeLa cells and placenta tissue
Method: as §1

[21] = molecular target: T21, kinases from mixed HeLa placenta lysates (Homo sapiens, UniProt Q99683); conditions: kinase MAP3K5; 10 μM free compound; HeLa Placenta lysate mix
T21 construct: capturing and identification of kinases from mixed HeLa placenta lysates; endogenous in cells; host or cells: mixed lysate of HeLa cells and placenta tissue
Method: as §1

[22] = molecular target: T22, kinases from mixed HeLa placenta lysates (Homo sapiens, UniProt Q96C45); conditions: kinase ULK4; 10 μM free compound; HeLa Placenta lysate mix
T22 construct: capturing and identification of kinases from mixed HeLa placenta lysates; endogenous in cells; host or cells: mixed lysate of HeLa cells and placenta tissue
Method: as §1

[23] = molecular target: T23, kinases from mixed HeLa placenta lysates (Homo sapiens, UniProt Q13233); conditions: kinase MAP3K1; 10 μM free compound; HeLa Placenta lysate mix
T23 construct: capturing and identification of kinases from mixed HeLa placenta lysates; endogenous in cells; host or cells: mixed lysate of HeLa cells and placenta tissue
T23 sequence (Q13233 whole entry): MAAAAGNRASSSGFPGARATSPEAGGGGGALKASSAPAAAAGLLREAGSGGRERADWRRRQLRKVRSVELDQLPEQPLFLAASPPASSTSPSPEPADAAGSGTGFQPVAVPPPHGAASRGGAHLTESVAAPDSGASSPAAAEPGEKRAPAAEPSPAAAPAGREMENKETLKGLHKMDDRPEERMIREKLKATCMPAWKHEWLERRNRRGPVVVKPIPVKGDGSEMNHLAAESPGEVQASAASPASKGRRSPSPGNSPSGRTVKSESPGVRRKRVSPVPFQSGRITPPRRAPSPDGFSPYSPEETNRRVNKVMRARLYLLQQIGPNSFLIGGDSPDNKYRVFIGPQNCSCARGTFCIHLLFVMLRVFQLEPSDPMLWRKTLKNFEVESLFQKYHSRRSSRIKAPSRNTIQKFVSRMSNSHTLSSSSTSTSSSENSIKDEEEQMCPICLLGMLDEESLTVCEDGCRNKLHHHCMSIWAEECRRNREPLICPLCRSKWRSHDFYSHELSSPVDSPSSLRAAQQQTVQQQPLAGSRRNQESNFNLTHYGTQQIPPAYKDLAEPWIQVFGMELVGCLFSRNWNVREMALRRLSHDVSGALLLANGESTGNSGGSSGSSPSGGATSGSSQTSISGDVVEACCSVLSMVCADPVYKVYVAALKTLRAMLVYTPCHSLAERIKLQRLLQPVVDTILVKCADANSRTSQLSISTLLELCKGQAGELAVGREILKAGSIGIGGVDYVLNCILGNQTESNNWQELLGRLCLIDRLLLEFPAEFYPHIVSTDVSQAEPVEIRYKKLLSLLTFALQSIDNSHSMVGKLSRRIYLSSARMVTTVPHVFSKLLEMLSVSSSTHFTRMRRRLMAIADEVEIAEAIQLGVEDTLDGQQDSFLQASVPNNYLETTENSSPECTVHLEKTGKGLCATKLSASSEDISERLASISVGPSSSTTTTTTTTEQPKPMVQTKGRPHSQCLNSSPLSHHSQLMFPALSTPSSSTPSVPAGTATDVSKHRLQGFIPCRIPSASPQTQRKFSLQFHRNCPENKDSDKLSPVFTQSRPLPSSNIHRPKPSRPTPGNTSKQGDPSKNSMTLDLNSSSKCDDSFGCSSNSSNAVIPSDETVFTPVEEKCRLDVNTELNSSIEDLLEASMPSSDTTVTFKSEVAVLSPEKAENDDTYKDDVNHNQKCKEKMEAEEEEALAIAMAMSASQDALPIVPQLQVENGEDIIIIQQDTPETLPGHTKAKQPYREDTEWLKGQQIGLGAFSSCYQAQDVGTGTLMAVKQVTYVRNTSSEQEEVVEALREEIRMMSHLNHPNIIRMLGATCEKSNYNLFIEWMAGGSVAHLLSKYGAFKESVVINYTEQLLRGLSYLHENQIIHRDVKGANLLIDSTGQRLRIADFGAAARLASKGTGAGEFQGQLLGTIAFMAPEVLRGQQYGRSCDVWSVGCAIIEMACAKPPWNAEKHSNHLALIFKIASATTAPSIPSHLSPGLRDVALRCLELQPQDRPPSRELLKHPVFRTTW
Method: as §1

[24] = molecular target: T24, kinases from mixed HeLa placenta lysates (Homo sapiens, UniProt Q8TD19); conditions: kinase NEK9; 10 μM free compound; HeLa Placenta lysate mix
T24 construct: capturing and identification of kinases from mixed HeLa placenta lysates; endogenous in cells; host or cells: mixed lysate of HeLa cells and placenta tissue
Method: as §1

Competition % SLK [1]: 95.2%
Competition % ULK3 [2]: 94.8%
Competition % NEK3 [3]: 94.8%
Competition % SRC [4]: 89.5%
Competition % TIE2 [5]: 91.4%
Competition % TEC [6]: 89.3%
Competition % CDK9 [7]: 97.6%
Competition % PHKg2 [8]: 93.4%
Competition % MER [9]: 96.5%
Competition % MLK3 [10]: 94.9%
Competition % PKCa [11]: 96.4%
Competition % TNK1 [12]: 94.1%
Competition % Erk2 [13]: 48.5%
Competition % BIKE [14]: 94.8%
Competition % YES [15]: 91.7%
Competition % ALK2 [16]: 96.4%
Competition % IRE1 [17]: 83.4%
Competition % MAP3K4 [18]: 92.2%
Competition % DDR1 [19]: 94.1%
Competition % AurB [20]: 93.1%
Competition % MAP3K5 [21]: 94.1%
Competition % ULK4 [22]: 84.7%
Competition % MAP3K1 [23]: 64.6%
Structure (SMILES): CS(=O)(=O)Nc1ccccc1Nc1nc(Nc2cccc(OCCN)c2)ncc1F [CZC25342, N-(2-(2-(3-(2-aminoethoxy)phenylamino)-5-fluoropyrimidin-4-ylamino)phenyl)methanesulfonamide]
Competition % NEK9 [24]: 83%
